Results from patent US20250221410A1, “SUBSTITUTED 2-C-AZINES AND SALTS THEREOF, AND USE THEREOF AS HERBICIDAL ACTIVE SUBSTANCES” (BAYER AKTIENGESELLSCHAFT, priority 2022, published 2025).

Assays:
Format in all cases: in vivo
[1] = tested on: VERPE: Veronica persica; test: Post-emergence herbicidal efficacy at 80 g/ha, VERPE; settings: visual rating about 3 weeks after treatment vs untreated controls
Description: (§1) Seeds of monocotyledonous and dicotyledonous weeds and crop plants were placed in sandy loam in plastic or organic planting pots, covered with soil and cultivated in a greenhouse under controlled growth conditions. 2 to 3 weeks after sowing, the test plants were treated at the one-leaf stage. The compounds of the invention, formulated in the form of wettable powders (WP) or as emulsion concentrates (EC), were then sprayed onto the green parts of the plants as aqueous suspension or emulsion with addition of 0.5% additive at a water application rate of 600 l/ha (converted). After the test plants had been kept in the greenhouse under optimum growth conditions for about 3 weeks, the activity of the preparations was rated visually in comparison to untreated controls. For example, 100% activity=the plants have died, 0% activity=like control plants. Tables B1 to B10 below show the effects of selected compounds of the general formula (I) according to Table 1 on various harmful plants and an application rate corresponding to 80 g/ha, which were obtained by the experimental procedure mentioned above.

[2] = tested on: AMARE: Amaranthus retroflexus; test: Post-emergence herbicidal efficacy at 80 g/ha, AMARE; settings: visual rating about 3 weeks after treatment vs untreated controls
Description: as §1

[3] = tested on: AMARE: Amaranthus retroflexus; test: Pre-emergence herbicide efficacy at 80 g/ha, AMARE; settings: scored visually after about 3 weeks
Text: Seeds of monocotyledonous and dicotyledonous weed plants and crop plants were placed in plastic or organic planting pots and covered with soil. The compounds of the invention, formulated in the form of wettable powders (WP) or as emulsion concentrates (EC), were then applied to the surface of the covering soil as aqueous suspension or emulsion with addition of 0.5% additive at a water application rate equivalent to 600 l/ha. After the treatment, the pots were placed in a greenhouse and kept under good growth conditions for the test plants. After about 3 weeks, the efficacy of the preparations was scored visually in comparison with untreated controls as percentages. For example, 100% activity=the plants have died, 0% activity=like control plants. Tables D1 to D12 below show the effects of selected compounds of the general formula (I) according to Table 1 on various harmful plants and an application rate corresponding to 80 g/ha, which were obtained by the experimental procedure mentioned above.

[4] = tested on: AMARE: Amaranthus retroflexus; test: Pre-emergence herbicide efficacy at 1280 g/ha, AMARE; settings: visual scoring after about 3 weeks vs untreated controls
In short: (§2)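 Seeds sown in sandy loam in pots and covered; compounds as WP or EC applied to covering soil surface as aqueous suspension/emulsion with 0.5% additive at 600 L/ha water. Greenhouse growth ~3 weeks, then visual % efficacy vs untreated controls (100% = plants dead, 0% = like control).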

[5] = tested on: MATIN: Matricaria inodora; test: Pre-emergence herbicide efficacy at 1280 g/ha, MATIN; settings: visual scoring after about 3 weeks vs untreated controls
Text: Seeds of mono- and dicotyledonous weed plants were placed in plastic pots in sandy loam soil (doubly sown with one species each of mono- or dicotyledonous weed plants per pot) and covered with soil. The compounds of the invention, formulated in the form of wettable powders (WP) or as emulsion concentrates (EC), were then applied to the surface of the covering soil as aqueous suspension or emulsion with addition of 0.5% additive at a water application rate of 600 litres per hectare (converted). After the treatment, the pots were placed in a greenhouse and kept under good growth conditions for the test plants. After about 3 weeks, the efficacy of the preparations was scored visually in comparison with untreated controls as percentages. For example, 100% activity=the plants have died, 0% activity=like control plants. Tables C1 to C12 below show the effects of selected compounds of the general formula (I) according to Table 1 on various harmful plants and at an application rate corresponding to 1280 g/ha, which were obtained by the trial procedure specified above.

[6] = tested on: STEME: Stellaria media; test: Pre-emergence herbicide efficacy at 1280 g/ha, STEME; settings: visual scoring vs untreated controls
In short: as §2

[7] = tested on: AMARE: Amaranthus retroflexus; test: Post-emergence herbicidal efficacy at 1280 g/ha, AMARE; settings: rated visually after about 3 weeks vs untreated controls, 100% = plants have died, 0% = like control plants
In short: (§3)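 Weeds grown in sandy loam in the greenhouse were sprayed at the one-leaf stage, 2 to 3 weeks after sowing, with WP or EC formulations in water plus 0.5% additive at 600 L/ha. Damage was scored visually about 3 weeks later against untreated controls (0% = like control, 100% = plants dead).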

[8] = tested on: VERPE: Veronica persica; test: Pre-emergence herbicide efficacy at 1280 g/ha, VERPE; settings: visual scoring vs untreated controls
In short: as §2

[9] = tested on: SETVI: Setaria viridis; test: Pre-emergence herbicide efficacy at 1280 g/ha, SETVI; settings: visual scoring vs untreated controls
In short: as §2

[10] = tested on: ECHCG: Echinochloa crus-galli; test: Pre-emergence herbicide efficacy at 1280 g/ha, ECHCG; settings: visual scoring after about 3 weeks vs untreated controls
In short: as §2

[11] = tested on: ECHCG: Echinochloa crus-galli; test: Post-emergence herbicidal efficacy at 1280 g/ha, ECHCG; settings: rated visually after about 3 weeks vs untreated controls, 100% = plants have died, 0% = like control plants
In short: as §3

[12] = tested on: ABUTH: Abutilon theophrasti; test: Pre-emergence herbicide efficacy at 1280 g/ha, ABUTH; settings: visual scoring after about 3 weeks vs untreated controls
In short: as §2

[13] = tested on: KCHSC: Kochia scoparia; test: Pre-emergence herbicide efficacy at 1280 g/ha, KCHSC; settings: visual scoring after about 3 weeks vs untreated controls
In short: as §2

[14] = tested on: POAAN: Poa annua; test: Pre-emergence herbicide efficacy at 1280 g/ha, POAAN; settings: visual scoring after about 3 weeks vs untreated controls
In short: as §2

[15] = tested on: POAAN: Poa annua; test: Post-emergence herbicidal efficacy at 1280 g/ha, POAAN; settings: visual rating about 3 weeks after treatment vs untreated controls
In short: as §3

[16] = tested on: DIGSA: Digitaria sanguinalis; test: Pre-emergence herbicide efficacy at 1280 g/ha, DIGSA; settings: visual scoring after about 3 weeks vs untreated controls
In short: as §2

[17] = tested on: STEME: Stellaria media; test: Post-emergence herbicidal efficacy at 1280 g/ha, STEME; settings: visual rating about 3 weeks after treatment vs untreated controls
In short: as §3

[18] = tested on: ABUTH: Abutilon theophrasti; test: Post-emergence herbicidal efficacy at 1280 g/ha, ABUTH; settings: rated visually after about 3 weeks vs untreated controls, 100% = plants have died, 0% = like control plants
In short: as §3

[19] = tested on: VERPE: Veronica persica; test: Post-emergence herbicidal efficacy at 1280 g/ha, VERPE; settings: visual rating about 3 weeks after treatment vs untreated controls
In short: as §3

[20] = tested on: KCHSC: Kochia scoparia; test: Post-emergence herbicidal efficacy at 1280 g/ha, KCHSC; settings: visual rating about 3 weeks after treatment vs untreated controls
In short: as §3

[21] = tested on: DIGSA: Digitaria sanguinalis; test: Post-emergence herbicidal efficacy at 1280 g/ha, DIGSA; settings: rated visually after about 3 weeks vs untreated controls, 100% = plants have died, 0% = like control plants
Description: Seeds of mono- and dicotyledonous weed plants were placed in plastic pots in sandy loam soil (doubly sown with in each case one species of mono- or dicotyledonous weed plants per pot), covered with soil and cultivated in a greenhouse under controlled growth conditions. 2 to 3 weeks after sowing, the test plants were treated at the one-leaf stage. The compounds of the invention, formulated in the form of wettable powders (WP) or as emulsion concentrates (EC), were applied to the green parts of the plants as aqueous suspension or emulsion with addition of 0.5% additive at a water application rate equivalent to 600 litres per hectare. After the test plants had been kept in the greenhouse under optimum growth conditions for about 3 weeks, the activity of the preparations was rated visually in comparison to untreated controls. For example, 100% activity=the plants have died, 0% activity=like control plants. Tables A1 to A12 below show the effects of selected compounds of the general formula (I) according to Table 1 on various harmful plants and at an application rate corresponding to 1280 g/ha, which were obtained by the trial procedure specified above.

[22] = tested on: SETVI: Setaria viridis; test: Post-emergence herbicidal efficacy at 1280 g/ha, SETVI; settings: visual rating about 3 weeks after treatment vs untreated controls
In short: as §3

Structure (SMILES) | Post-emergence efficacy against VERPE [1] | Post-emergence efficacy against AMARE [2] | Pre-emergence efficacy against AMARE [4] | Pre-emergence efficacy against MATIN [5] | Pre-emergence efficacy against STEME in % [6] | Post-emergence efficacy at 1280 g/ha against AMARE in % [7] | Pre-emergence efficacy against VERPE in % [8] | Pre-emergence efficacy against SETVI in % [9] | Pre-emergence efficacy against ECHCG [10] | Pre-emergence efficacy against ABUTH [12] | Pre-emergence efficacy against KCHSC [13] | Pre-emergence efficacy against POAAN [14] | Post-emergence efficacy against POAAN [15] | Pre-emergence efficacy against DIGSA [16] | Post-emergence efficacy against STEME [17] | Post-emergence efficacy at 1280 g/ha against ABUTH in % [18] | Post-emergence efficacy against VERPE [19] | further results
O=S(=O)(CCCCl)Oc1c(F)cccc1Cc1ncc(Cl)cn1 [Example 1-193] | 90% | 90% | – | – | – | – | – | – | – | – | – | – | – | – | – | – | – | –
O=S(=O)(CCCC(F)(F)F)Oc1c(F)cccc1Cc1ncc(Cl)cn1 [Example 1-14] | 95% | 95% | – | – | – | – | – | – | – | – | – | – | – | – | – | – | – | Pre-emergence efficacy against AMARE in % [3]: 90%
FC(F)(F)c1cnn(-c2ccccc2Cc2ncc(Cl)cn2)c1 [Example 1-42] | – | – | 100% | 90% | 100% | 100% | 90% | 100% | 90% | 100% | 100% | 90% | 90% | 100% | 90% | 90% | 90% | Post-emergence efficacy at 1280 g/ha against ECHCG in % [11]: 90%
Clc1ccc(Cc2ccccc2Oc2ncc(Cl)cn2)nc1 [Example 1-91] | – | – | 100% | 100% | 100% | 100% | 100% | 100% | 90% | 100% | 100% | 100% | 100% | 100% | 100% | 100% | 100% | Post-emergence efficacy against KCHSC [20]: 100%; Post-emergence efficacy at 1280 g/ha against DIGSA in % [21]: 90%; Post-emergence efficacy against SETVI [22]: 90%
Fc1ccc(Cc2ccccc2Oc2ncc(Cl)cn2)nc1 [Example 1-92] | – | – | 100% | 100% | 100% | 100% | 100% | 100% | 100% | 100% | 100% | 100% | 100% | 100% | 100% | 90% | 100% | Post-emergence efficacy against KCHSC [20]: 100%; Post-emergence efficacy at 1280 g/ha against DIGSA in % [21]: 90%; Post-emergence efficacy against SETVI [22]: 100%
O=S(=O)(CCCC(F)(F)F)Oc1c(F)cccc1Cc1ncc(Br)cn1 [Example 1-186] | 90% | 90% | – | – | – | – | – | – | – | – | – | – | – | – | – | – | – | –
O=S(=O)(CCC(F)(F)F)Oc1c(F)cccc1Cc1ncc(Br)cn1 [Example 1-187] | 90% | 90% | – | – | – | – | – | – | – | – | – | – | – | – | – | – | – | Pre-emergence efficacy against AMARE in % [3]: 100%
